The numbers were not newly measured in patent US20240226016A1, “STARCH BASED PRINTABLE MATERIALS” (ROQUETTE FRERES, priority 2021, published 2024), which cites them from elsewhere.

For `Cn1c(=O)c2c(ncn2CC(O)CO)n(C)c1=O` (stereo not shown) [diprophylline], the “solubility in water (class)” value is “freely soluble in water”.
